In article PMC7539012, “Hyperphosphorylated tau aggregation and cytotoxicity modulators screen identified prescription drugs linked to Alzheimer's disease and cognitive functions” (Scientific Reports, 2020):
Structures can show the parent of a compound that is named as a salt. Where a SMILES comes first, the peptide text is derived from it. [ ]: non-standard residue; d: D form. pGlu = O=C1CC[C@@H](C(=O)O)N1; Thz = O=C(O)[C@@H]1CSCN1

test system: T1, 1N4R p-tau; assay: p-tau aggregation modulator screen of 1280-compound library (ThS fluorescence net change over 16 h); format: biochemical; set-up: key to PTAI>2SD: *: PTAI>2SD; conditions: not given;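 on ThS net change: 30 µM compound with 6 µM p-tau over 16 h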
T1 construct: made in house; host or cells: E. coli (PIMAX system)

| Molecule | ThS net change |
| --- | --- |
| C=CC[N@@+]12CC[C@]34c5ccccc5N5/C=C6\C7N(/C=C(\C53)[C@@H](C[C@@H]41)/C(=C/CO)C2)c1ccccc1[C@@]71CC[N@@+]2(CC=C)C/C(=C\CO)[C@@H]6C[C@@H]12.[Cl-].[Cl-] (some centres unmarked) [Alcuronium chloride] | 460 |
| CC(C)c1c(CN(C)C(C)Cc2ccccc2)n(C)n(-c2ccccc2)c1=O (centres unmarked) [Famprofazone] | 477 |
| Lymecycline | 312 |
| COCCCC/C(=N\OCCN)c1ccc(C(F)(F)F)cc1 [Fluvoxamine maleate] | 420 |
| O=C(Oc1cccc2cccnc12)c1ccccc1 [Benzoxiquine] | 287 |
| C=CC[C@]1(O)CC[C@H]2[C@@H]3CCC4=CC(=O)CCC4=C3C=C[C@@]21C [Altrenogest] | 432 |
| CC(=O)NCCCS(=O)(=O)O [Acamprosate calcium] | 422 |

same assay, conditions: 1280-compound library screen; ThS fluorescence net change over 16 h

| Molecule | ThS net change |
| --- | --- |
| Cc1cc2cc3c(C)cc(=O)oc3c(C)c2o1 [Trioxsalen] | 390 |
| CCCOc1ccc2nc(NC(=O)OC)[nH]c2c1 [Oxibendazol] | 391 |
| O=C1c2ccccc2C(=O)C1c1ccccc1 [Phenindione] | 378 |
| CCn1cc(C(=O)O)c(=O)c2cc(F)c(N3CCNC(C)C3)c(F)c21 (centres unmarked) [Lomefloxacin hydrochloride] | 390 |
| CC(C)NCC(O)COc1ccc(CC(N)=O)cc1 (stereo in doubt) [(R)-(+)-Atenolol] | 395 |
| CC1CCc2c(N3CCC(O)CC3)c(F)cc3c(=O)c(C(=O)O)cn1c23 (centres unmarked) [Nadifloxacin] | 399 |
| Cl.Cl.OCCN1CCN(CC/C=C2/c3ccccc3Sc3ccc(Cl)cc32)CC1 [Zuclopenthixol dihydrochloride] | 398 |
| NCCCNCCSP(=O)(O)O [Amifostine] | 392 |
| CCCCOc1ccc(C(=O)CCN2CCCCC2)cc1 [Dyclonine hydrochloride] | 406 |
| O=C(O)Cc1sc(-c2ccccc2)nc1-c1ccc(Cl)cc1 [Fentiazac] | 382 |
| C[C@@](Cc1ccc(O)c(O)c1)(NN)C(=O)O [Carbidopa] | 395 |
| CCCOc1cc(N)ccc1C(=O)OCCN(CC)CC [Propoxycaine hydrochloride] | 403 |
| CN1CCCC(CC2c3ccccc3Sc3ccccc32)C1 (centres unmarked) [Metixene hydrochloride] | 386 |
| CC(C)C[C@H](NC(=O)[C@@H](O)[C@H](N)Cc1ccccc1)C(=O)O [Ubenimex] | 390 |
| CN1CCCCC1CCN1c2ccccc2Sc2ccc([S+](C)[O-])cc21 (centres unmarked) [Mesoridazine besylate] | 391 |
| CC(=O)NC[C@H]1CN(c2ccc(N3CCOCC3)c(F)c2)C(=O)O1 [Linezolid] | 405 |
| Nc1ncnc2c1ncn2[C@@H]1O[C@H](CO)[C@@H](O)[C@@H]1O [Vidarabine] | 401 |
| CC(CNC1CCCCC1)OC(=O)c1ccccc1 (centres unmarked) [Hexylcaine hydrochloride] | 393 |

same assay, conditions: 1280-compound library screen; […]

| Molecule | ThS net change |
| --- | --- |
| CN(C)C(=O)Oc1cccc([N+](C)(C)C)c1 [Neostigmine bromide] | 409 |
| CCCCOC(=O)c1ccc(O)cc1 [Butylparaben] | 396 |
| CC1(C)S[C@@H]2[C@H](NC(=O)[C@H](C(=O)O)c3ccsc3)C(=O)N2[C@H]1C(=O)O [Ticarcillin sodium] | 407 |

same assay, conditions: flag: p-tau aggregation inhibitor, ThS net change more than 2 SD from mean

| Molecule | PTAI>2SD |
| --- | --- |
| COC(=O)Nc1nc2ccc(Sc3ccccc3)cc2[nH]1 [Fenbendazole] | * |

same assay, conditions: library screen, ThS fluorescence net change over 16 h with p-tau

| Molecule | ThS net change |
| --- | --- |
| CCCCCC[C@H]1C(=O)O[C@H](C)[C@H](NC(=O)c2cccc(NC=O)c2O)C(=O)O[C@@H](C)[C@@H]1OC(=O)CC(C)C [Antimycin A] | 211 |
| CCCN1C[C@H](CSC)C[C@@H]2c3cccc4[nH]cc(c34)C[C@H]21 [Pergolide mesylate] | 279 |
| Cc1cccc(N(C)C(=S)Oc2ccc3ccccc3c2)c1 [Tolnaftate] | 219 |
| CN1CCCN=C1/C=C/c1cccs1.O=C(O)C(O)C(O)C(=O)O [Pyrantel tartrate] | 312 |
| CO[C@]12C[C@@H](COC(=O)c3cncc(Br)c3)CN(C)[C@@H]1Cc1cn(C)c3cccc2c13 [Nicergoline] | 260 |
| CCN(CCCCOC(=O)c1ccc(OC)c(OC)c1)C(C)Cc1ccc(OC)cc1 (centres unmarked) [Mebeverine hydrochloride] | 295 |
| COC(=O)Nc1nc2ccc(Sc3ccccc3)cc2[nH]1 [Fenbendazole] | 148 |
| O=C(O)c1cc(/N=N/c2ccc(S(=O)(=O)Nc3ccccn3)cc2)ccc1O [Sulfasalazine] | 282 |
| O=C(Nc1cccc2c(=O)cc(-c3nnn[nH]3)oc12)c1ccc(OCCCCc2ccccc2)cc1 [Pranlukast] | 288 |

same assay, conditions: p-tau aggregation modulator screen of 1280-compound library; ThS fluorescence net change

| Molecule | ThS net change |
| --- | --- |
| CN(C)CCC=C1c2ccccc2CCc2ccccc21.Cl [Amitryptiline hydrochloride] | 362 |
| c1ccc2c(CC3=NCCN3)cccc2c1 [Naphazoline hydrochloride] | 361 |
| COC(=O)[C@H]1[C@H]2C[C@@H]3c4[nH]c5cc(OC)ccc5c4CCN3C[C@H]2C[C@@H](OC(=O)c2cc(OC)c(OC)c(OC)c2)[C@@H]1OC [Reserpine] | 355 |
| NCc1ccccc1CC(=O)N[C@@H]1C(=O)N2C(C(=O)O)=C(CSc3nnnn3CC(=O)O)CS[C@H]12 [Ceforanide] | 351 |
| NNCCc1ccccc1 [Phenelzine sulfate] | 369 |
| O=C(CCCN1CCC(O)(c2ccc(Br)cc2)CC1)c1ccc(F)cc1 [Bromperidol] | 337 |
| Cc1ccc(/C(=C\CN2CCCC2)c2ccccn2)cc1.Cl [Triprolidine hydrochloride] | 360 |
| Oc1c(I)cc(Cl)c2cccnc12 [Clioquinol] | 336 |
| CCCCN1CCCCC1C(=O)Nc1c(C)cccc1C (centres unmarked) [Bupivacaine hydrochloride] | 364 |
| CN(C(=O)CN(CCO)CC(=O)N(C)C(C)(C)Cc1ccccc1)C(C)(C)Cc1ccccc1 [Oxethazaine] | 329 |
| C#C[C@]1(O)CC[C@H]2[C@@H]3CCC4=CC(=O)CC[C@@H]4[C@H]3CC[C@@]21C [Norethindrone] | 356 |
| CN1CCC(=C2c3ccccc3C=Cc3ccccc32)CC1 [Cyproheptadine hydrochloride] | 375 |
| N=C(N)N1CCc2ccccc2C1 [Debrisoquin sulfate] | 360 |
| CC(COc1ccccc1)NC(C)C(O)c1ccc(O)cc1 (centres unmarked) [Isoxsuprine hydrochloride] | 347 |
| CCCCCCCN(CC)CCCC(O)c1ccc(NS(C)(=O)=O)cc1.CCCCCCCN(CC)CCCC(O)c1ccc(NS(C)(=O)=O)cc1.O=C(O)/C=C/C(=O)O (centres unmarked) [Ibutilide fumarate] | 330 |
| CC(CCc1ccccc1)NCC(O)c1ccc(O)c(C(N)=O)c1 (centres unmarked) [Labetalol hydrochloride] | 353 |
| CC(C)NCC(O)c1cc(O)cc(O)c1.CC(C)NCC(O)c1cc(O)cc(O)c1.O=S(=O)(O)O (centres unmarked) | 362 |
| CCCOc1ccccc1-c1nc2nn[nH]c2c(=O)[nH]1 [Zaprinast] | 335 |
| CC[C@@H](CO)NCCN[C@@H](CC)CO [Ethambutol dihydrochloride] | 344 |
| Cc1cc2c(cc1S(N)(=O)=O)S(=O)(=O)CCC2 [Meticrane] | 368 |
| CC(=O)[C@H]1CC[C@H]2[C@@H]3CCC4=CC(=O)CC[C@]4(C)[C@H]3CC[C@]12C [Progesterone] | 336 |

same assay, conditions: p-tau aggregation modulator screen of 1280-compound library; […]

| Molecule | ThS net change |
| --- | --- |
| COc1cc2nc(N3CCN(C(=O)C4CCCO4)CC3)nc(N)c2cc1OC (centres unmarked) [Terazosin hydrochloride] | 366 |
| C[C@]12CCC(=O)C=C1C=C[C@@H]1[C@@H]2CC[C@@]2(C)[C@H]1CC[C@@]2(O)CCC(=O)[O-].[K+] [Canrenoic acid potassium salt] | 329 |
| CC(C)CC(N(C)C)C1(c2ccc(Cl)cc2)CCC1.Cl (centres unmarked) [Sibutramine HCl] | 347 |
| CC(C)(C)NCC(O)c1cc(Cl)c(N)c(Cl)c1 (centres unmarked) [Clenbuterol hydrochloride] | 349 |
| Br.CN1[C@@H]2CC[C@H]1C[C@@H](OC(=O)C(O)c1ccccc1)C2 (stereo partly drawn) [Homatropine hydrobromide (R,S)] | 332 |
| CN1CCCN(C(c2ccccc2)c2ccc(Cl)cc2)CC1.Cl.Cl (centres unmarked) [Homochlorcyclizine dihydrochloride] | 343 |
| C[C@]12N[C@H](Cc3ccccc31)c1ccccc12 [Dizocilpine maleate] | 349 |
| CC(C)c1ccc2oc3nc(N)c(C(=O)O)cc3c(=O)c2c1 [Amlexanox] | 376 |

same assay, conditions: p-tau aggregation modulator screen of the compound library, ThS fluorescence net change

| Molecule | ThS net change |
| --- | --- |
| C[C@]12CC[C@@H]3c4ccc(O)cc4CC[C@H]3[C@@H]1C[C@@H](O)[C@@H]2O [Estriol] | 440 |
| CN1C(=O)CC(c2ccccc2)C1=O (centres unmarked) [Phensuximide] | 453 |
| O=c1[nH]cc(F)c(=O)[nH]1 [5-fluorouracil] | 471 |
| CN(C)c1nc(N(C)C)nc(N(C)C)n1 [Altretamine] | 414 |
| CO[C@@]1(NC(=O)CSCC#N)C(=O)N2C(C(=O)O)=C(CSc3nnnn3C)CS[C@@H]21 [Cefmetazole sodium salt] | 468 |
| CC[C@H](c1ccc(O)cc1)[C@@H](CC)c1ccc(O)cc1 [Hexestrol] | 435 |
| O=C1CC[C@@H](C(=O)N2CSC[C@H]2C(=O)O)N1 [Pidotimod] ([pGlu]-[Thz]-OH) | 441 |
| COc1c(N2CCNC(C)C2)c(F)cc2c(=O)c(C(=O)O)cn(C3CC3)c12 (centres unmarked) [Gatifloxacin] | 426 |
| CNc1ncnc2c1ncn2[C@@H]1O[C@H](CO)[C@@H](O)[C@H]1O [N6-methyladenosine] | 416 |
| CC(=O)Nc1nnc(S(N)(=O)=O)s1 [Acetazolamide] | 429 |
| COC(c1ccccc1)(c1ccccc1)[C@H](Oc1nc(C)cc(C)n1)C(=O)O [Ambrisentan] | 506 |
| C=CCOC(Cn1ccnc1)c1ccc(Cl)cc1Cl (centres unmarked) [Enilconazole] | 461 |
| CC(=O)CC(c1ccccc1)c1c(O)c2ccccc2oc1=O (centres unmarked) [Warfarin] | 413 |
